Results on 14 substances are retold here after patent US20240368668A1, “SUBSTRATES AND BIOMARKERS OF ADAMTS7” (The Broad Institute, Inc., priority 2021, published 2024).

Square brackets hold non-standard residues; d marks the D form. Ends that are not written are not given here.

One experiment concerns mouse ADAMTS7. Nature of the experiment: TMT10 TAILS N-terminomics, HUVEC experiment (process replicates, trypsin/AspN digest). The experiment is classed as cell-based, human. The conditions noted are these: HUVEC TAILS HC; log fold change of N-terminal peptide, Ad-mADAMTS7 WT over EQ. In short, it runs like this: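 Full-length mouse ADAMTS7 (WT or E373Q mutant, C-terminal 3xFLAG) or luciferase was transduced via adenovirus, 50 MOI, into HCA-SMC (SMC1, SMC2) or HUVEC. SMC1: pooled media, technical triplicates 400 ug; SMC2: process triplicates 300 ug; HUVEC: process triplicates 200 ug, bFGF2 10 ng/ml.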
For “ECM1_108 (QEAVPLQK; listed as Homo sapiens)”, the logFC.mWT.over.mEQ was 2.12.
Same read-out and setting: in the case of “EFEMP1_125_ (VAGPEMQTGR; listed as Homo sapiens)” it was 2.45.
Same read-out and setting: in the case of “ERAP2_718 (ISENLKR; listed as Homo sapiens)” it was 4.41; in that of “EWSR1_87 (YSQPVQGYGTGAY; listed as Homo sapiens)”, 1.15; in that of “FN1_34 ([code q]QMVQPQSPVAVSQSKPGCY; not fully specified (residue 3); listed as Homo sapiens)”, 1.43.
In the case of “FN1_35 ([code q]MVQPQSPVAVSQSKPGCY; not fully specified (residue 2); listed as Homo sapiens)”, the logFC.mWT.over.mEQ is given as 2.58.
The same measure, in the same setting: in the case of “FN1_293 (VYQPQPHPQPPPYGHCVT; listed as Homo sapiens)” it was 1.24; in that of “FN1_607 (SSSGPVEVFIT; listed as Homo sapiens)”, 2.71; in that of “FN1_1144 (TPGVEYVYTIQVLR; listed as Homo sapiens)”, 1.62.
Substance “FN1_1780 (LQGLRPGSEYTVSVVALH; listed as Homo sapiens)” had a logFC.mWT.over.mEQ of 2.27.
Turning to “FN1_1805 (LIGTQSTAIPAPT; listed as Homo sapiens)”, the logFC.mWT.over.mEQ was found to be 1.42.
Same read-out and setting: in the case of “FN1_2113 (FVTHPGY; listed as Homo sapiens)” it was 1.67.
In the case of “FSTL1_290 (LQKHQETA; listed as Homo sapiens)”, the logFC.mWT.over.mEQ was 2.57.
As to “LOX_125 (FQAGYSTSR; listed as Homo sapiens)”, the logFC.mWT.over.mEQ was found to be 3.58.

The same experiment, now with this note: HUVEC experiment; log fold change, mouse ADAMTS7 WT over EQ.
In the case of “FN1_607 (SSSGPVEVFIT; listed as Homo sapiens)”, the “HUVEC logFC.mWT.over.mEQ” value is listed as 2.04.
